Test results reported in patent US11096917B2, “Composition for preventing or treating muscle diseases, comprising suberic acid or pharmaceutically acceptable salt thereof as active ingredient” (INDUSTRY-ACADEMIC COOPERATION FOUNDATION, YONSEI UNIVERSITY, priority 2017, dated 2021).

Columns and labels:
[1] = tested on: mouse myoblast cell line (C2C12 cells); assay: Giemsa-Wright staining; thickness, length and fusion index of myotubes reduced by dexamethasone; assay type: cell-based; conditions: 100 μM suberic acid + 50 μM dexamethasone, 2 days, vs dexamethasone alone
Protocol: (§1) A mouse myoblast cell line (C2C12 cells) was purchased from the American Type Culture Collection (ATCC, Manassas, Va., USA), and the purchased cells were cultured at 37° C. in a 5% CO2 incubator using a 10% fetal bovine serum medium (Gibco-BRL). When the cultured cells reached 80% confluence, the cells were differentiated into myotubes using a 2% horse serum medium (Gibco-BRL).
(§2) From the fourth day of differentiation, the cells were treated with 50 μM dexamethasone (dexa; Sigma) and 100 μM suberic acid (CAS Number 505-48-6, Sigma) for 2 days.
(§3) The cells were treated with 50 μM dexamethasone (dexa; Sigma) in the same manner as in Example 1.
The myotubes prepared in Example 1 were washed twice with phosphate-buffered saline (PBS), and then immobilized with 100% methanol for 10 minutes. When the immobilization was completed, the myotubes were air-dried at room temperature for 10 minutes, and then stained for 30 minutes by dropwise addition of a Giemsa-Wright staining solution (ASAN Pharmaceutical Co., Ltd., Seoul) which is used to specifically stain myotubes.
The myotubes thus stained were photographed at 100× and 40× magnifications using a fluorescence microscope (IX 71, Olympus), and then analyzed using Image J software (USA). Six regions in each well were randomly selected and photographed using a microscope. The thicknesses, lengths and fusion indexes of at least 100 myoblast cells in each well were analyzed (in triplicate/group).

p-4E-BP1 = assay: Western blotting of p-4E-BP1 in dexamethasone-treated myotubes; assay type: cell-based, mouse; conditions: 100 μM suberic acid + 50 μM dexamethasone, 2 days, vs dexamethasone alone; FIG. 2A
Protocol: as §1, §2, §3
(§4) To perform Western blotting in the cells, 500 μL of a lysis buffer, which included 100 mM Tris-HCl (pH 7.4), 5 mM EDTA, 50 mM sodium pyrophosphate, 50 mM NaF, 100 mM orthovanadate, 1% Triton X-100, 1 mM phenylmethanesulfonyl fluoride, 2 μg/mL aprotinin, 1 μg/mL pepstatin A, and 1 μg/mL leupeptin, was added to each well from which a medium was removed, and the cell suspension was harvested, and then centrifuged at 4° C. and 1,300×g for 20 minutes. Thereafter, the middle layer was taken, and proteins were quantified according to the Bradford method (Bio-Rad). […] The bands visualized on the X-ray film were scanned, and then quantified using Quantity One analysis software (Bio-Rad).

p-p70S6K1 = assay: Western blotting of p-p70S6K1 in dexamethasone-treated myotubes; assay type: cell-based, mouse; conditions: 100 μM suberic acid + 50 μM dexamethasone, 2 days, vs dexamethasone alone; FIG. 2A
Protocol: as §1, §2, §3, §4

MaFbx/atrogin-1 = assay: RT-PCR of MaFbx/atrogin-1 gene expression in dexamethasone-treated myotubes; assay type: cell-based, mouse; conditions: 100 μM suberic acid + 50 μM dexamethasone, 2 days, vs dexamethasone alone; FIG. 2B
Protocol: as §1, §2, §3
(§5) 1×10^7 mouse myoblast cells were added to 334 μL of a TRIzol solution, and pulverized. Thereafter, the resulting cell solution was centrifuged at 4° C. and 12,000× g for 10 minutes. The supernatant was transferred to a new tube, and 67 μL of chloroform was added thereto, and vortexed. The supernatant was again transferred to a new tube, and isopropanol was added so that a ratio of the supernatant and isopropanol was 1:1. […] A concentration of the extracted RNA sample was measured at wavelengths of 260 nm and 280 nm using a UV/VIS spectrophotometer (Beckman coulter, DU730), and the integrity of the RNA sample was determined by means of agarose gel electrophoresis. […]

MuRF1 = assay: RT-PCR of MuRF1 gene expression in dexamethasone-treated myotubes; assay type: cell-based, mouse; conditions: 100 μM suberic acid + 50 μM dexamethasone, 2 days, vs dexamethasone alone; FIG. 2B
Protocol: as §1, §2, §3, §5

C57BL/6N mice [2] = assay: Grip strength test in high-fat diet-induced muscle loss mice; assay type: in vivo, mouse; conditions: 0.2% suberic acid in high fat diet, 10 weeks, force (N) per weight (kg), vs high-fat diet mice; FIG. 3 (B)
Excerpt: (§6) Twenty-four 5-week-old male C57BL/6N mice (Mating, Korea) were adapted to laboratory circumstances for a week while feeding a commercially available normal diet (rodent chow), and then assigned into three groups (a Chow group, a HFD group, and a suberic acid-treated group; n=8 mice per group) according to a randomized block design, and bred for 10 weeks. An obesity-inducing diet used in this experiment was a high fat diet (HFD: 40% fat calories, 17 g of lard+3% corn oil/100 g of diet), and a suberic acid-supplemented high fat diet (Suberic Acid) had the same compositions as the HFD, provided that the suberic acid-supplemented high fat diet included 0.2% suberic acid (Table 2). A normal diet group (Chow) took a commercially available rodent chow. The suberic acid was purchased from Sigma-Aldrich Corp.
To measure grip strength of the mice, at 10 weeks of breeding, the grip strength of the mice was measured using four limbs. A force (N) generated by a mouse gripping a wire grid was measured a total of five times using a grip strength meter (Daejong Instrument Industry Co., Ltd., Korea) equipped with a wire grid (20×10 cm), and an at least one-minute break between every measurement was provided. The experimental results were calculated by dividing the measured force (N) by the weight (kg) of the mouse. […]

C57BL/6N mice [3] = assay: H&E staining of muscle tissue, fiber diameter, in high-fat diet mice; assay type: in vivo, mouse; conditions: 0.2% suberic acid in high fat diet, 10 weeks, vs high-fat diet mice
Excerpt: as §6
A muscle tissue was extracted from a mouse, immobilized with 10% formalin, stained with a Hematoxylin and Eosin (H&E) stain, and then submitted to the Korea CFC (Gyeonggi-do, Korea). […]
The statistical analysis of all data was carried out using a statistical package for the social sciences (SPSS version 21.0, IBM, Armonk, N.Y., USA) PC package. In this case, the analyzed numerical values are expressed as the mean±SEM, and a significant difference between the groups was verified using ANOVA.

O=C(O)CCCCCCC(=O)O [suberic acid]
increase in thickness (diameter) of the myotubes ([1]; FIG. 1B): 58%
increase in fusion index of the myotubes ([1]; FIG. 1C): 53%
increase in length of the myotubes ([1]; FIG. 1D): 100%
amount of p-4E-BP1 protein (p-4E-BP1): significantly increased again
amount of p-p70S6K protein (p-p70S6K1): significantly increased again
expression of MaFbx/atrogin-1 (MaFbx/atrogin-1): significantly decreased
expression of MuRF1 (MuRF1): significantly decreased
increase in grip strength of the mice (C57BL/6N mice [2]): approximately 21%
increase in fiber diameter of the rectus femoris (C57BL/6N mice [3]; FIG. 4 (A)): 10%
increase in fiber diameter of the soleus (C57BL/6N mice [3]; FIG. 4 (B)): 15%
